The values that follow are results of earlier work, collected in US20230079706A1, “Solid Cleansing Compositions and Methods for the Same” (Colgate-Palmolive Company, priority 2021, published 2023).

The subject of the data set is melanin. The conditions noted are these: personal care compositions with lower than 2.0 wt % Kojic acid.

As for `O=c1cc(CO)occ1O` [Kojic acid, 5-Hydroxy-2-(hydroxymethyl)-4H-pyran-4-one], the “Efficacy in the reduction of melanin and/or the inhibition of melanin production” value was “poor to no efficacy”.
